Source: ChEMBL document CHEMBL3861946 (Medchemcomm, 2016)
Where a SMILES comes first, the peptide text is derived from it. The star is where a group is joined. Cbz = O=C(OCc1ccccc1)*; CH2F = FC*

Experiments:
Caspase-3 = molecular target: T1, Caspase-3 (Homo sapiens, UniProt P42574); assay: Inhibition of recombinant human caspase-3 using Ac-DEVD-AMC as substrate preincubated for 10 mins followed by substrate addition measured after 60 mins by fluorometric assay
T1 sequence (P42574 whole entry): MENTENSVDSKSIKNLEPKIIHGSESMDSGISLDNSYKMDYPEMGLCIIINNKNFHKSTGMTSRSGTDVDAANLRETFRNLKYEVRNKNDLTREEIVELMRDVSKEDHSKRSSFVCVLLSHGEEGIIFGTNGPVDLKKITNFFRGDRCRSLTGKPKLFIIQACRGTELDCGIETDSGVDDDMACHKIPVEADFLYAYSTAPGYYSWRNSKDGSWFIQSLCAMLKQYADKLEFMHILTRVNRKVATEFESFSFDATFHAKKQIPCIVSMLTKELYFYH

[1] = molecular target: T2, Amine oxidase [flavin-containing] A (Homo sapiens, UniProt P21397); assay: Inhibition of recombinant human MAOA using kynuramine as substrate assessed as decrease in formation of 4-hydroxyquinoline incubated for 20 mins by fluorescence assay
T2 sequence (P21397 whole entry): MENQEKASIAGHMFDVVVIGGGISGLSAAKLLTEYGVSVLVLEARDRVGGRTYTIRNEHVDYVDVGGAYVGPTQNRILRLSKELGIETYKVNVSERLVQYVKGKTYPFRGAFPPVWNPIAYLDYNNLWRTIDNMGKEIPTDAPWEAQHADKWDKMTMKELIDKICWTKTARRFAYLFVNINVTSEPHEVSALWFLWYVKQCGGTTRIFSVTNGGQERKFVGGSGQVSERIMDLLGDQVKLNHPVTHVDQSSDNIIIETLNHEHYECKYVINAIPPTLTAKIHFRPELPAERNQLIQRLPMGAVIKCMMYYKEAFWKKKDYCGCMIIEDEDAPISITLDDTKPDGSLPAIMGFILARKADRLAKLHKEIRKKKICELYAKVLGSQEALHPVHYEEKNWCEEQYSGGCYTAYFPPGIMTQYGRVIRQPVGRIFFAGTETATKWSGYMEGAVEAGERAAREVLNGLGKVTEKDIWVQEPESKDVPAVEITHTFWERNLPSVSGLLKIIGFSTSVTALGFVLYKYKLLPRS

[2] = molecular target: T3, Amine oxidase [flavin-containing] B (Homo sapiens, UniProt P27338); assay: Inhibition of recombinant human MAOB using kynuramine as substrate assessed as decrease in formation of 4-hydroxyquinoline incubated for 20 mins by fluorescence assay
T3 sequence (P27338 whole entry): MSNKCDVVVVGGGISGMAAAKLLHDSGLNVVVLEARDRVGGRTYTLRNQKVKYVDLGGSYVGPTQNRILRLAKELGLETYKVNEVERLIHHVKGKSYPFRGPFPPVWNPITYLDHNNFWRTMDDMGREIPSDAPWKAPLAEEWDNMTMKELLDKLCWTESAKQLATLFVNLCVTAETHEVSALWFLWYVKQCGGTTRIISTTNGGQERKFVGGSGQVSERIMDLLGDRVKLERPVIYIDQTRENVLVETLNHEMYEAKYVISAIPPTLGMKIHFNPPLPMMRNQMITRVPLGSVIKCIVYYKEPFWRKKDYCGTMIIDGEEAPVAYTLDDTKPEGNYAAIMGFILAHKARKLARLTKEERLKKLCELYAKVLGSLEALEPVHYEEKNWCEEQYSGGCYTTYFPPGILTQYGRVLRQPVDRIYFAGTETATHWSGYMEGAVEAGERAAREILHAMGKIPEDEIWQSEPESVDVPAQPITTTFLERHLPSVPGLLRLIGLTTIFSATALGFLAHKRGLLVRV

Homo sapiens = organism: Homo sapiens; assay: Selectivity ratio of IC50 for recombinant human MAOB to IC50 for recombinant human MAOA
[3] = molecular target: T2, Amine oxidase [flavin-containing] A; assay: Time-dependent inhibition of recombinant human MAOA using kynuramine as substrate assessed as decrease in formation of 4-hydroxyquinoline at 2 times IC50 preincubated for 15 to 60 mins followed by substrate addition measured after 15 mins by fluorescence assay; conditions: 0.25 h

Structure (SMILES)	IC50 (Caspase-3) [µM]	IC50 [1] [µM]	Ki [1] [nM]	IC50 [2] [µM]	Ratio IC50 (Homo sapiens)	Ki [2] [µM]	TDI [3]
COC(=O)C[C@H](NC(=O)[C@H](C)NC(=O)[C@@H](NC(=O)OCc1ccccc1)C(C)C)C(=O)CF (Cbz-Val-Ala-Asp(OMe)-CH2F)	40						
C#CCN1C(=O)C(=O)c2cc(S(=O)(=O)N(C)Cc3ccc(F)cc3)ccc21	> 100	4.31	1140	> 100	> 23.9		
CN(Cc1cccc(F)c1)S(=O)(=O)c1ccc2c(c1)C(=O)C(=O)N2		22.8	6000	8.32		3.58	
C#CCN1C(=O)C(=O)c2cc(S(=O)(=O)N(C)Cc3ccccc3F)ccc21		9.43	2480	128		55.2	
C#CCN(C)CCCOc1ccc(Cl)cc1Cl [CLORGILINE]	> 100						Active
C#CCN(C)[C@H](C)Cc1ccccc1 [SELEGILINE]	> 100						
O=C1Nc2ccccc2C1=O [ISATIN]	> 100						
CN(Cc1ccc(F)cc1)S(=O)(=O)c1ccc2c(c1)C(=O)C(=O)N2		8.26	2180	5.96		2.57	
C#CCN1C(=O)C(=O)c2ccccc21	> 100	30.9	8140	35.2	2.12	15.1	
CN(Cc1ccccc1F)S(=O)(=O)c1ccc2c(c1)C(=O)C(=O)N2		21.6	5700	> 100			
C#CCN1C(=O)C(=O)c2cc(S(=O)(=O)N(C)Cc3cccc(F)c3)ccc21		10.7	2810	70.6		30.4	
